Reference: a melting point compilation (Tetko et al.; mined from patent text by program, amines drawn as free bases though some values may be those of a salt)

melting point [°C] | SMILES
122 to 125 | Cc1oc(C(=O)NCc2ccc3c(c2)OCO3)c(C)c1-c1nc2ccc(C(=O)c3ccccc3)cc2[nH]1
283 to 284 | O=C(O)c1ccc(-c2nc(-c3ccc(Cl)s3)cs2)cc1
117 to 118 | COc1cc(-c2nc(-n3c(C)ccc3C)sc2SCC2CCCCC2)c(OC)cc1C
123 to 125 | Cc1cc(-c2ccccc2)nn1C(C)(C)C(=O)N(C)C
58 | CNCCCCCCCCCCCO
167 to 168 | CCOC(=O)C1(Cc2ccc(OC)c(OC)c2)C(=O)NCC1c1ccc2c(c1)OCO2 (stereo unspecified)
217 to 220 | CS(=O)(=O)Nc1ccc([N+](=O)[O-])cn1
114 to 116 | CCOC(=O)C1CCC2(CCN(S(=O)(=O)c3ccc(C)cc3)c3ccccc3C2)C1=O (stereo unspecified)
143 to 144 | CC(=O)n1c(SC(F)(F)C(F)F)nc(-c2ccccc2)c1-c1ccccc1
91 to 92 | COC(=O)C[C@@H](SCc1ccccc1)C(=O)O
185 | COc1cc2c(cc1OC)CN(CC(=O)Nc1ccc(N)cc1)CC2
120 | CCOC(=O)c1c(N2CCNCC2)c2cccnc2n(Cc2ccccc2)c1=O
213 to 217 | N#Cc1ccc2ccn3cccc3c(=O)c2c1
68 | c1ccc(COc2ccc(OCC3CO3)cc2)cc1 (stereo unspecified)
188 | CCCCCCCCCCCCCCCCCC(=O)Nc1ccc(NC(=O)NS(=O)(=O)c2ccc(OC)cc2)cc1
158 | Nc1ccc(CC2CCN(S(=O)(=O)c3ccccc3)CC2)cc1
176 to 179 | CCOC(=O)c1cc(=O)cc(-c2ccc(S(C)(=O)=O)cc2)o1
110 to 111 | O=C(Oc1ccccc1)Oc1ccccc1C(=O)NC(Oc1ccccc1)C(Cl)(Cl)Cl (stereo unspecified)
153 to 155 | O=C(O)c1cc([N+](=O)[O-])ccc1Nc1ccc(CCCc2ccc(Cl)c(Cl)c2)cc1
194 | C=NOC(C(=O)O)c1cccc(NC(=O)NCC(=O)N2C(c3ccccc3)CCC2c2ccccc2)c1 (stereo unspecified)
140 to 142 | CCOc1cc(CN2CCc3cc(O)ccc3C2)cc(OCC)c1OCC
161 to 162 | CCCCCn1ncc2c(N)c3c(nc21)CCNC3=O
204 to 206 | Nc1ccc(S(=O)(=O)Nc2ccc(Cl)c3cc[nH]c23)cn1
159 to 161 | CC(=O)Nc1ccc(Oc2ccc(S(C)=O)cc2)cc1 (stereo unspecified)

melting point [°C] | SMILES
177 to 179 | CCOC(=O)c1ccc(-c2ccc(-c3ccc(O)cc3)c(-c3ccc4c(c3)C(C)(C)CCC4(C)C)c2)cc1
188 to 190 | COc1nccc(-c2c(-c3ccc(F)cc3)ncn2[C@H]2CC[C@H](O)CC2)n1
> 275 | O=c1c2ccc(Cl)cc2[nH]c2c(O)nn(Cc3cccc(-c4nnn[nH]4)c3)c(=O)c12
30 | Cc1ccc(S(=O)(=O)OCCc2cccs2)cc1
145 to 147 | COc1ccc2[nH]c(SCc3nccc(N4CCCCC4)c3Cl)nc2c1
250 to 251 | COc1ccc(Nc2nc(=O)c3cccnc3s2)cc1
95 to 100 | C[C@@H](C(=O)O)N(C(=O)[C@@H]1CS[C@H](c2ccccc2O)N1C(=O)CCSC(=O)c1ccccc1)c1ccccc1
118 to 119 | CN(C)C=NS(=O)(=O)c1c2c(O)cccc2nn1C
77 to 81 | CNC(=O)C(=O)CCCCCCc1csc(-c2ccc(Cl)cc2)n1
> 260 | COc1nc(Cl)nc(NC#N)n1
124 to 126 | Cc1ccccc1C(C)Oc1cc(OCc2ccsc2)ccc1C(=O)CC(=O)C(=O)O (racemic)
186 to 187 | CC(C)(C)OC(=O)N[C@@H](Cc1ccc(NC(=O)OCC2c3ccccc3-c3ccccc32)cc1)C(=O)OCc1ccccc1
178 to 179 | Cc1nnc2c3c(c(Cl)nn12)C1CCC3CC1
178 to 180 | O=C1CNC(c2ccc(Cl)cc2)=NN1CC(F)(F)F
148 to 151 | COC(=O)C(=CNc1ccc(O)cc1C)C(=O)C=CC1=CCCC1
197 to 200 | O=C(NCSc1ncnc2nc[nH]c12)c1ccccc1
211 to 213 | CCCn1nc2c(N)nc3ccccc3c2c1CCCCS(N)(=O)=O
> 250 | CSc1nc(O)c(C=O)c(O)n1
136 to 137 | COC(=O)CCn1c(=O)n(CCN2CCN(c3cccc(OC)c3)CC2)c(=O)c2cscc21
96 to 98 | CCN(CC)c1ccc(-n2c(C(F)(F)F)nn(C)c2=S)cn1
125 to 127 | N#Cc1ccc(C(=O)N[C@@H](Cc2c[nH]c3ccccc23)C(=O)O)cc1
170 | Cc1nc2ccccn2c(=O)c1CCN1CCC(c2noc3cc(F)ccc23)CC1
76 | COC(=O)c1scc(C)c1-n1cccc1
41 to 43 | COc1cccc(C=O)c1OCc1ccccc1

melting point [°C] | SMILES
123 to 124 | O=C(CNC(=O)c1nc2cccc(OC(F)(F)F)c2cc1OCc1ccccc1)OCc1ccccc1
91 to 95 | Cc1cc(Cl)ccc1Br
90 to 91 | COc1cccc(OC)c1C(=O)NCCSCc1cccc(Cl)c1
215 to 216 | O=C1CCc2ccc(OCCCCN3CCN(c4cccc5cc(Cl)ccc45)CC3)nc2N1
136 | CCOC(=O)c1sccc1S(N)(=O)=O
122 to 123 | Nc1ccccc1-c1cc[nH]n1
66 to 68 | CCC(Oc1cccc(C(F)(F)F)c1)C(=O)NCc1ccccc1Cl (stereo unspecified)
99 to 100 | CCCC1(C)C(=O)N(CCl)S(=O)(=O)N1C (stereo unspecified)
154 to 155 | COCCOCCn1cc(C(=O)NCc2ccc(Cl)cc2)c(=O)c2cc(CSC)ccc21
101 to 103 | CCC(C(=O)N(C)C)n1ccc(-c2ccccc2)n1 (stereo unspecified)
60 to 62 | c1cc(C2CCOCC2)ccn1
140 to 142 | CCOC(=O)c1ncc2c(c1COC)c1c(Cc3ccccc3Cl)cccc1n2S(=O)(=O)c1ccc(C)cc1
> 280 | Cc1c(N)c([N+](=O)[O-])cc2c(=O)c(C(=O)O)cn(-c3cc(N)c(F)cc3F)c12
170 to 172 | O=C(Nc1ccc(Cl)cn1)c1cc(Cl)ccc1NCC1CCN(C2CCCCCC2)CC1
214 | COc1ccc(C(=CF)C(N)C(=O)O)cc1O (stereo unspecified)
247 to 249 | CC(C)n1c(=O)c2c(-c3cc(C4CC4)on3)ncn2c2ccccc21
155 to 156 | Brc1cccc(-c2cc(-c3cccc(Br)c3)on2)c1
81 to 83 | NC/C=C/COc1ccc(-n2ccnc2)cc1
165 to 168 | CC(=O)NC1CCN(c2ccccn2)CC1
230 to 232 | CCn1c(=O)c2cnc(N)nc2n(CC)c1=O
153 | CCSc1nc(C)[nH]c1CO
162 | OC1Cc2ccc(F)cc2Sc2ccc(I)cc21 (stereo unspecified)
128 to 130 | O=C1N[C@@H](C(=O)N2C[C@H](O)C[C@H]2C(=O)O)CCCCCC[C@@H]1CS
206 | CCOC(=O)C1C(=O)Nc2ccccc2SC1c1ccc(Cl)cc1 (stereo unspecified)

melting point [°C] | SMILES
115 to 116 | CCCn1nnc(-c2cnc3ccccn3c2=O)n1
142 to 144 | CC1CC(=Cc2ccccc2OCC(O)CN2CCC(c3ccc4ccccc4c3)CC2)C(=O)O1 (stereo unspecified)
79 to 81 | Cc1oc(-c2ccc(C(F)(F)F)cc2)nc1-c1ccc(-c2cc(Br)c(O)c(Br)c2)cc1
128 | CN(C)c1nc(NCc2ccc(NC(=O)c3ccc(F)cc3)cc2)c2ccc(-c3ccccc3C=O)cc2n1
79 to 80 | CCc1cc(C)c2c(C3CCCCC3)cc(=O)n(CC)c2n1
88 to 89 | CC(=O)CC(=O)N1CC(c2ccccc2)c2ccccc21 (stereo unspecified)
96 | COC(=O)c1ccc(-c2ccccn2)cc1
152 to 168 | COC(=O)c1cc2c(N3CCN(CCC(C(=O)N4CCCCCC4)c4ccccc4)CC3)cccc2[nH]1 (stereo unspecified)
251 to 252 | CCCn1c(=O)c2[nH]c(N3CCOCC3)nc2n(CCC)c1=O
123 to 124 | CC(C)N1C(=O)c2cccc(Cl)c2N(C#N)S1(=O)=O
> 240 | COc1ccccc1CN[C@H]1CCCN[C@H]1c1cc(Br)cc(Br)c1 (relative stereo)
172 to 173 | CCCCCCNC(=O)c1cccc2c1C1(COc3cc4c(cc31)OCCO4)C(=O)N2C (stereo unspecified)
224 to 225 | CC(C)c1[nH]nc2c1C(=O)c1c(NC(=O)CN3CCC(C(N)=O)CC3)cccc1-2
210 to 211 | CNn1cc(C(=O)O)c(=O)c2cc(F)c(N3CCC(N)C3)c(F)c21 (stereo unspecified)
147 to 149 | CCOCc1nc2c(N)nc(C)c(C)c2n1NCCCNS(C)(=O)=O
232 to 233 | O=Cc1coc2cc3c(cc2c1=O)OCO3
282 to 284 | O=c1c2c(Cc3cccs3)n[nH]c2c2cccnc2n1-c1ccccc1
239 to 240 | Nc1nc2ccccc2c2c1nc1n2C(CO)COC1 (stereo unspecified)
165 to 168 | Cc1cc(C(=O)CCCCCCCCC(=O)c2cc(C)c(O)c(C(C)(C)C)c2)cc(C(C)(C)C)c1O
187 to 188 | COc1cc(NC(=O)OCC2c3ccccc3-c3ccccc32)ccc1C=O
66 | N#Cc1ccc(C(F)(F)C23CCCN2C(=O)N(c2cc(Cl)cc(Cl)c2)C3=O)cc1 (stereo unspecified)
150 to 151 | CCCCOC(=O)COc1ccc(C(=O)Nc2ccccc2Sc2cccc(C)c2-c2nnn[nH]2)cc1
85 to 87 | COC(=O)N(C)c1ccc(OCc2nc3ccccc3s2)cc1

SMILES | melting point [°C]
CCCCCCCCN[C@@H]1Cc2cc(OC)c(OC)cc2[C@H]1O (relative stereo) | 133 to 135
NC(=O)c1nc(Cl)n2c1CN=C(c1ccccc1Cl)c1cc(Cl)ccc1-2 | 285 to 288
COc1cc(C(=O)c2ccccc2)c(O)c2c1C(C)(C)CCC2(C)C | 85
Nc1ccc2c(c1)OCC(CN1CC=C(c3c[nH]c4ccc(F)cc34)CC1)O2 (stereo unspecified) | 172 to 174
Cc1ccc(S(=O)(=O)C(CCl)Sc2cccc(C)c2)cc1 (stereo unspecified) | 80 to 97
CSCCCn1c(C)c(C(=O)c2cccc(Cl)c2Cl)c2cccc(Br)c21 | 119
